ChEMBL document CHEMBL1201862, “PubChem BioAssay data set” (2004)
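Each compound was tested at five concentrations against cells in 96-well plates for 48 hours. GI50: concentration for 50% inhibition of growth.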 Active and inactive are the calls of the source. No stated cut-off is given here; in the data, active = GI50 up to about 1.1 µM and inactive = higher.

Columns and labels:
Experiment in all cases: DTP human tumour cell line panel, 48 h
[1] = system: SNB-75
[2] = system: NCI-H23
[3] = system: UACC-62
[4] = system: SR
[5] = system: OVCAR-8
[6] = system: ACHN
[7] = system: SN12C
[8] = system: SF-539
[9] = system: SW-620
[10] = system: SF-268
[11] = system: HOP-62
[12] = system: K562
[13] = system: A549
[14] = system: SK-MEL-28
[15] = system: SK-OV-3
[16] = system: NCI-H522
[17] = system: RPMI-8226

Measured: GI50

CC1CC2=Nc3ccccc3NC(c3ccccc3)C2=C(O)O1 (stereo unspecified)
inactive: [1] > 100 µM | [2] > 100 µM | [3] 93.8 µM | [4] 63.1 µM | [5] > 100 µM | [6] > 100 µM | [7] > 100 µM | [8] > 100 µM | [9] > 100 µM | [10] > 100 µM | [11] > 100 µM | [12] > 100 µM | [13] > 100 µM | [14] > 100 µM | [15] > 100 µM | [16] 47.1 µM

COc1ccccc1C1C(C(=O)O)=C(CO)Oc2cc3c(cc21)OCO3 (stereo unspecified)
inactive: [1] > 100 µM | [17] > 100 µM | [2] > 100 µM | [3] > 100 µM | [5] > 100 µM | [6] > 100 µM | [7] > 100 µM | [8] > 100 µM | [9] > 100 µM | [10] > 100 µM | [12] > 100 µM | [14] > 100 µM | [15] > 100 µM | [16] > 100 µM

CCN(CC)CC(C)(C)C(=O)/C=C/c1ccc(C)cc1
inactive: [1] 6.98 µM | [2] > 10 µM | [3] 13.6 µM | [4] 3.61 µM | [5] 11.8 µM | [6] 14.6 µM | [7] 7.64 µM | [8] 13.3 µM | [9] 3.55 µM | [10] 10.1 µM | [11] 18.5 µM | [12] 3.03 µM | [13] 12.9 µM | [14] 13.5 µM | [15] 22.6 µM | [16] 3.03 µM

Cc1ccccc1NC(=O)CC(=O)N1N=C(N2c3ccccc3Sc3ccccc32)CC1c1ccccc1 (stereo unspecified)
inactive: [1] > 100 µM | [17] > 100 µM | [2] > 100 µM | [3] > 100 µM | [4] > 100 µM | [5] > 100 µM | [6] > 100 µM | [7] > 100 µM | [8] > 100 µM | [9] > 100 µM | [10] > 100 µM | [11] > 100 µM | [13] > 100 µM | [14] > 100 µM | [15] > 100 µM

CCOC(=O)C1=C(Nc2ccccc2)OC/C1=N\NC(=O)Cc1ccccc1
inactive: [1] 31.4 µM | [17] > 50 µM | [2] > 50 µM | [3] > 50 µM | [5] > 50 µM | [7] > 50 µM | [8] > 50 µM | [9] > 50 µM | [10] > 50 µM | [11] > 50 µM | [12] > 50 µM | [13] > 50 µM | [14] > 50 µM | [15] > 50 µM | [16] > 50 µM

CSc1nc(NC(=O)O)c(N(C(C)=O)C(=O)O)c(=O)n1C
inactive: [17] > 100 µM | [3] > 100 µM | [5] > 100 µM | [6] > 100 µM | [7] > 100 µM | [8] > 100 µM | [9] > 100 µM | [10] > 100 µM | [12] > 100 µM | [13] > 100 µM | [14] > 100 µM

Cc1cc(C(C)(C)C)cc(Cc2cc(C(C)(C)C)cc(Cc3cc(C(C)(C)C)cc(C)c3O)c2O)c1O
inactive: [1] 4.49 µM | [17] 2.47 µM | [2] 10 µM | [3] 6.84 µM | [5] 5.5 µM | [7] 7.28 µM | [8] 7.71 µM | [9] 5.28 µM | [10] 2.89 µM | [11] 15.4 µM | [12] 4.54 µM | [13] 5.86 µM | [15] 14.1 µM | [16] 3.71 µM

Cc1cc(Cl)ccc1/N=C1/NC(=O)C(CC(=O)Nc2cccc(C)c2C)S1 (stereo unspecified)
inactive: [1] 19.9 µM | [17] 19.7 µM | [2] 18.2 µM | [3] 25.9 µM | [5] 26.5 µM | [6] 26 µM | [7] 25.9 µM | [8] 21.5 µM | [9] 35.1 µM | [10] 26 µM | [11] 24 µM | [12] 24.8 µM | [13] 32 µM | [14] 30.2 µM | [15] 30.4 µM

CCCCN(CCCC)C(=O)C(=O)C(C#N)c1ccc(C)cc1 (stereo unspecified)
inactive: [1] > 100 µM | [17] > 100 µM | [2] > 100 µM | [3] > 100 µM | [5] > 100 µM | [6] > 100 µM | [7] > 100 µM | [8] > 100 µM | [9] > 100 µM | [10] > 100 µM | [11] > 100 µM | [12] > 100 µM | [13] > 100 µM | [14] > 100 µM | [16] > 100 µM
